The results in this text go back to ChEMBL document CHEMBL1201862, “PubChem BioAssay data set” (2004).

Activity calls are given as the source filed them.

The target in one assay is Kallikrein-7 (Homo sapiens, UniProt P49862). Briefly: Fluorescence Intensity-based biochemical primary high throughput dose response assay to identify activators of kallikrein-7 (K7) zymogen.
The subject of another assay is INS1. The assay is described as follows: INS-1E survival protection against cytokine death – cell-based, luminescence, retest, dose response (AID 449756).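 Also: cell death triggered by IL-1 beta plus TNF-alpha plus IFN-gamma mixture; protective hits raise ATP signal compared with cytokine alone wells.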 The format is functional. The following applies: Rattus norvegicus.
Assay [1] in a line: cells. The format is functional, cell-based.
For a further assay, the system named is Streptococcus. Briefly: GAS UMAA2166 growth inhibition – luminescence, BacTiterGlo, counter-screen for streptokinase expression inhibitor project, dose response (AID 1915).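 Also: potency for reduction of bacterial viability or growth.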 The format is functional, organism-based.
Assay [2] concerns Streptococcus sp. 'group A'. The assay is described as follows: Streptococcus pyogenes SK(-)GAS viability under kanamycin – luminescence, BacTiterGlo, confirmation, counter-screen for streptokinase expression inhibitor project, dose response (AID 1900). The format is functional, organism-based.
A short description of assay [3]: cells. The format is functional, cell-based. This is another data set of the same source.
Assay [4] can be described thus: HGIII-sPLA2 enzyme inhibition potency – biochemical, QFRET, IC50, dose response (AID 743457).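 Also: green fluorescence rise as the enzyme cleaves BODIPY PC-A2 in liposomes.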
A short description of assay [5]: COV362 cell viability loss – plate reader, dry powder, SA12, cytotoxicity control for PAX8 inhibitor project, dose response (AID 743144). The format is functional, cell-based.
In the next assay the target is Paired box protein Pax-8 (Homo sapiens, UniProt Q06710). The assay is described as follows: PAX8 transcriptional activity inhibition in RMG-I – RMG-I cells, luciferase, cherry-pick, dose response (AID 687027).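 Also: luciferase reporter driven by Pax8 target thyroperoxidase promoter measured by SteadyGlo luminescence.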 The format is functional, cell-based.
Assay [6] in a line: COV434 cell viability loss – plate reader, dry powder, SA7, cytotoxicity control for PAX8 inhibitor project, dose response (AID 743145). The format is functional, cell-based.
Assay [7] can be described thus: OV-90 cell viability loss – plate reader, dry powder, SA8, PAX8 inhibitor project, dose response (AID 743149). The format is functional, cell-based.
Assay [8] can be described thus: OVCAR4 cell viability loss – plate reader, dry powder, SA11, cytotoxicity control for PAX8 inhibitor project, dose response (AID 743150). The format is functional, cell-based. The following applies: OVCAR-4.
In assay [9] the target is Endoplasmic reticulum aminopeptidase 1 (Homo sapiens, UniProt Q9NZ08). Briefly: inhibition of human ERAP1 enzyme activity – biochemical, cherry-pick, set 2, plate reader, dose response (AID 743314).
In assay [10] the target is Tyrosyl-DNA phosphodiesterase 2 (Homo sapiens, UniProt O95551). The assay is described as follows: potency against TDP2 phosphodiesterase activity – biochemical, epi absorbance, IC50, dose response (AID 743297).
Assay [11] is described as follows: OVCAR8 cell viability loss – plate reader, dry powder samples, PAX8 project, dose response (AID 743197). The format is functional, cell-based. The following applies: OVCAR-8.
The nature of assay [12]: OVCAR-3 cell viability loss – plate reader, dry powder samples, PAX8 inhibitor project, dose response (AID 743044). The format is functional, cell-based.
Assay [13] can be described thus: CMV-driven luciferase expression suppression in HEK293 – cell-based, luminescence, dry powder, counter-screen for Pax8 inhibitor project, dose response (AID 743020). The format is functional.
Assay [14] is described as follows: IGROV1 cell killing – plate reader, dry powder samples, PAX8 inhibitor project, dose response (AID 743043). The format is functional, cell-based. The following applies: IGROV-1.
The nature of assay [15]: general cell-killing toxicity readout – plate reader, dry powder samples, cytotoxicity control for PAX8 inhibitor project, dose response (AID 743021). The format is functional, cell-based.
Assay [16] is described as follows: toxicity toward immortalized ovarian surface epithelium – cell-based, plate reader, dry powder samples, cytotoxicity control for PAX8 inhibitor project, dose response (AID 743045). The format is functional.
Assay [17] is described as follows: A2780 cell killing – plate reader, dry powder samples, cytotoxicity control, dose response (AID 743046). The format is functional, cell-based.
For assay [18], the target named is Luciferin 4-monooxygenase (Photinus pyralis, UniProt P08659). Briefly: inhibition of purified Photinus pyralis luciferase – biochemical, luminescence, dose response (AID 1891).
In assay [19] the target is T1, Sentrin-specific protease 8 (Homo sapiens, UniProt Q96LD8).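 Also: luminescence read-out of SENP8 inhibition, dose-response confirmation following an ultra-high-throughput screen.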
T1 sequence (Q96LD8 whole entry): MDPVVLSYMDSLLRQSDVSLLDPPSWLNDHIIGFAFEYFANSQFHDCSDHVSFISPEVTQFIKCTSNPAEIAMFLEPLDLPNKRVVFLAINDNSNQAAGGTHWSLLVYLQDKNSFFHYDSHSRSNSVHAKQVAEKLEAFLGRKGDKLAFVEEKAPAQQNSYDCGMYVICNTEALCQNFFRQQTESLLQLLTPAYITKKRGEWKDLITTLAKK
The format is functional.

In assay [20] the target is T2, Sentrin-specific protease 7 (Homo sapiens, UniProt Q9BQF6).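 Also: Luminescence-based dose-response confirmation of ultra-high-throughput screening hits, measuring inhibition of SENP7.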
T2 sequence (Q9BQF6 whole entry): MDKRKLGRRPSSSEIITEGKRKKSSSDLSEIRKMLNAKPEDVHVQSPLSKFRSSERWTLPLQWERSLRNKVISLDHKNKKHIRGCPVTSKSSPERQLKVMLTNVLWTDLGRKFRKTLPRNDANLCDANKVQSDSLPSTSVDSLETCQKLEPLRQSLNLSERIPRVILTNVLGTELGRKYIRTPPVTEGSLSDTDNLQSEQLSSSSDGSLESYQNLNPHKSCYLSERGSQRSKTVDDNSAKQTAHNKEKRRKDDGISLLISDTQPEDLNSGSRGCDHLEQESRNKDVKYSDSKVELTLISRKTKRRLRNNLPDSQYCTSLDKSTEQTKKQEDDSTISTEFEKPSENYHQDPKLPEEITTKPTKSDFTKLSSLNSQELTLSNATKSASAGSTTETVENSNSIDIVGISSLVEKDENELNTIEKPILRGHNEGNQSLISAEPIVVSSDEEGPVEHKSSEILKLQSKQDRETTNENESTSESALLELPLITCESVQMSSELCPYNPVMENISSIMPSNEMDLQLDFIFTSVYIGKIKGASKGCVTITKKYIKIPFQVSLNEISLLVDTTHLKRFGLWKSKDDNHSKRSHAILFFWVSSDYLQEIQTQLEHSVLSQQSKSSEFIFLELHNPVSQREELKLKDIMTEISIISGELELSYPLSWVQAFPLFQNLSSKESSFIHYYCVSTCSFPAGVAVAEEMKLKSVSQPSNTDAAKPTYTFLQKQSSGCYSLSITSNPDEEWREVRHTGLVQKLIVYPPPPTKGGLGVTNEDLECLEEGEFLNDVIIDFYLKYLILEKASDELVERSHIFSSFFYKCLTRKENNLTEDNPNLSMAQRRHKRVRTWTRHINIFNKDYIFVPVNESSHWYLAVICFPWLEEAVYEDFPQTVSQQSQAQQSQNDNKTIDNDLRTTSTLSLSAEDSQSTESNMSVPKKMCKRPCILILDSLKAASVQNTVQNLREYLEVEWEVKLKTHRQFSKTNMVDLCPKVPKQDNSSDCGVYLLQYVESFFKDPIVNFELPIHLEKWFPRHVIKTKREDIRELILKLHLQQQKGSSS
The format is functional.

A further assay has as its target T3, Caspase-3 (Homo sapiens, UniProt P42574).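 Also: Dose-response selectivity test against caspase-3 for candidate inhibitors of sentrin-specific proteases (SENPs).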
T3 sequence (P42574 whole entry): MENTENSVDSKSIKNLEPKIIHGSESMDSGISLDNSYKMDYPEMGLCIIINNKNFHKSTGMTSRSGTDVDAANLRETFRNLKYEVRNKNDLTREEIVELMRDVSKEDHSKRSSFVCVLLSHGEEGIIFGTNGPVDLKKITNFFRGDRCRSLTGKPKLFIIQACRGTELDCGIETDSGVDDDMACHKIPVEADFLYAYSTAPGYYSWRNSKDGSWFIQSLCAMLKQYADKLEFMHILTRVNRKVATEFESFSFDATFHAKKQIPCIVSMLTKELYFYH
The format is functional.

Assay [21] in a line: Luminescence Cell-Based Dose Confirmation HTS to Identify Inhibitors of Platelet Dense Granule Release. [Related pubchem assays: 1663 (Primary HTS), 1678 (Summary of Project)]. The format is functional.
Assay [22] is described as follows: general mammalian cell viability loss – inhibitor set, cherry-pick, set 2, cytotoxicity control for miR-122 modulator project, dose response (AID 720697). The format is functional, cell-based.
Assay [23] deals with T4, Probable nicotinate-nucleotide adenylyltransferase (Staphylococcus aureus (strain N315), UniProt P65502). The format is functional, Staphylococcus aureus subsp. aureus N315. The following applies: read-out: IC50_Mean.
In assay [24] the target is T5, Sentrin-specific protease 6 (Homo sapiens, UniProt Q9GZR1).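 Also: Luminescence-based dose-response confirmatory assay of SENP6 inhibition, following up an ultra-high-throughput screen.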
T5 sequence (Q9GZR1 whole entry): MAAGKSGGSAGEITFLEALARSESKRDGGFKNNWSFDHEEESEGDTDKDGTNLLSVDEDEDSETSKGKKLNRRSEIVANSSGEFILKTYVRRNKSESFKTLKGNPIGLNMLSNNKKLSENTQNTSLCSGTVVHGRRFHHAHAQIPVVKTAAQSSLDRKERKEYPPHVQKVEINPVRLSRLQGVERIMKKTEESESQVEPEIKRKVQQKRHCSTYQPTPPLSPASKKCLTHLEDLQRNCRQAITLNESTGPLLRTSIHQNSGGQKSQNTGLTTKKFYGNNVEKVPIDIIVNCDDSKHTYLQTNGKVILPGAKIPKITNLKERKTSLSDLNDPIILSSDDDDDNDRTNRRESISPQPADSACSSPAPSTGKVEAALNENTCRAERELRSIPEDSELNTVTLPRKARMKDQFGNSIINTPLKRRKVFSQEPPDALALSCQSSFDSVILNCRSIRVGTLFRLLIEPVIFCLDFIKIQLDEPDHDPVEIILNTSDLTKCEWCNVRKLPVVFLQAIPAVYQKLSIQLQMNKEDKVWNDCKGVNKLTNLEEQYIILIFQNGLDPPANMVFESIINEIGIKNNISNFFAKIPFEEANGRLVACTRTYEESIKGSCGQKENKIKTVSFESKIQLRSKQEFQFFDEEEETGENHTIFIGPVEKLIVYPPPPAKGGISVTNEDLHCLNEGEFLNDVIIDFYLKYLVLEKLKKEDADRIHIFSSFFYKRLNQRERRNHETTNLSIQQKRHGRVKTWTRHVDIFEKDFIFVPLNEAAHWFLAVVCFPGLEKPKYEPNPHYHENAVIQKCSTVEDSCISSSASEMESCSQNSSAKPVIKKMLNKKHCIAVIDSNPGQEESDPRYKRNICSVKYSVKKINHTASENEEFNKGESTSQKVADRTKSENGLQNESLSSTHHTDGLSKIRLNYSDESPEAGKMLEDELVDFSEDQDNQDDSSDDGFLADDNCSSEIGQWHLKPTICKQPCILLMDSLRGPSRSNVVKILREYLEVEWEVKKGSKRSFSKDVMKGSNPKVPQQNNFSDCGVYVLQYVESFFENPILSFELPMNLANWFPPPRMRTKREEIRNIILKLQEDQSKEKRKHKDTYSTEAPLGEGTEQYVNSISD
The format is functional.

The target in assay [25] is T4, Probable nicotinate-nucleotide adenylyltransferase. The format is functional, Staphylococcus aureus subsp. aureus N315.
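For IC50 Mean in this document: confirmatory dose-response retesting of NadD inhibitor hits first found in an ultra-high-throughput screen.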

Sequence of Endoplasmic reticulum aminopeptidase 1 (Q9NZ08 whole entry): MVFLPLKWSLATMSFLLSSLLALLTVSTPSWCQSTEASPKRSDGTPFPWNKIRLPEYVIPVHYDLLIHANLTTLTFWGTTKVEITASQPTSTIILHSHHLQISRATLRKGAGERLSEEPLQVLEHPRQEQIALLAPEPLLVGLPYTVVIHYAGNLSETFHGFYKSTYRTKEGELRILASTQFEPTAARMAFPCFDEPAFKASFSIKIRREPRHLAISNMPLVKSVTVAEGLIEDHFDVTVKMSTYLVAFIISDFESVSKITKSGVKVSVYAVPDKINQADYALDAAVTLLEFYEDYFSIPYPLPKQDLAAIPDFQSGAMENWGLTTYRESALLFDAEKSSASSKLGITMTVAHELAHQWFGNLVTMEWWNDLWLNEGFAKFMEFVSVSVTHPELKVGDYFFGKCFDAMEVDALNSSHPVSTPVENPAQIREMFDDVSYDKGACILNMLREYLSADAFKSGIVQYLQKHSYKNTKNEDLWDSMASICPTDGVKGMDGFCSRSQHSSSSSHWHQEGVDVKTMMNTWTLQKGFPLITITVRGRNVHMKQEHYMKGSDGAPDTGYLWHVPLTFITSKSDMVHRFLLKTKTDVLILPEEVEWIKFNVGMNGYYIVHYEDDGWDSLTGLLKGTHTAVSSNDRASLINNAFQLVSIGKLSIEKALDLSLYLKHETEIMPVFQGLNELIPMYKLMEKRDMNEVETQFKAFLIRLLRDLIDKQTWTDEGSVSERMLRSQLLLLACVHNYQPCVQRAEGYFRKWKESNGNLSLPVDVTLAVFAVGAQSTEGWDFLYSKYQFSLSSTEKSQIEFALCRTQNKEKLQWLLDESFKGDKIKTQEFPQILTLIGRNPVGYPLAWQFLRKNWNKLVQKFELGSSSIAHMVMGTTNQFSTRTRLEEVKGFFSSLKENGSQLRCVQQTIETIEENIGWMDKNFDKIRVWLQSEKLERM
T4 sequence (P65502 whole entry): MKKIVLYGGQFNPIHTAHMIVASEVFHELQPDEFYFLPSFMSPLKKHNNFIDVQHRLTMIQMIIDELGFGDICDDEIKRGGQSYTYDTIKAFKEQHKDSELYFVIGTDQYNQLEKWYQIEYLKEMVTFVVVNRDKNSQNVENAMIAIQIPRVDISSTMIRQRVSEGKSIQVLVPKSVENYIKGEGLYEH
Sequence of Paired box protein Pax-8 (Q06710 whole entry): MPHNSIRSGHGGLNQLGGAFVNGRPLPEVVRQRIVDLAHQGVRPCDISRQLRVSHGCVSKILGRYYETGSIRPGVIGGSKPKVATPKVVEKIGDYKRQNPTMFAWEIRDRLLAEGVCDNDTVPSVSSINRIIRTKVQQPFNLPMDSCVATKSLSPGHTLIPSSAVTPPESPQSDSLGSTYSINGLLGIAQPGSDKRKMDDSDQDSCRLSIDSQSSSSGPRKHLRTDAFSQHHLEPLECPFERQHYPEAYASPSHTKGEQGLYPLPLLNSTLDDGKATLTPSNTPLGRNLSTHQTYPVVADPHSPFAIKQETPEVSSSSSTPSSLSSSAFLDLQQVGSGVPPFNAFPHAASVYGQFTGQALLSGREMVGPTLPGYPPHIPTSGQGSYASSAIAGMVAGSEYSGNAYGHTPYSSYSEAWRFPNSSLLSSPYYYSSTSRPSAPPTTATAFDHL
Sequence of Kallikrein-7 (P49862 whole entry): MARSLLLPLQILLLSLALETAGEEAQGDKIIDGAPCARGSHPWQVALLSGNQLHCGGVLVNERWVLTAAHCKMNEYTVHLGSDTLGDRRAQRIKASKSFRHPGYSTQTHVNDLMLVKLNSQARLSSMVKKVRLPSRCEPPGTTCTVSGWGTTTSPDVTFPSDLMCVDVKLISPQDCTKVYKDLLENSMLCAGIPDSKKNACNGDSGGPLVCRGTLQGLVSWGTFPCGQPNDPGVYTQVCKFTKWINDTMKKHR
Sequence of Tyrosyl-DNA phosphodiesterase 2 (O95551 whole entry): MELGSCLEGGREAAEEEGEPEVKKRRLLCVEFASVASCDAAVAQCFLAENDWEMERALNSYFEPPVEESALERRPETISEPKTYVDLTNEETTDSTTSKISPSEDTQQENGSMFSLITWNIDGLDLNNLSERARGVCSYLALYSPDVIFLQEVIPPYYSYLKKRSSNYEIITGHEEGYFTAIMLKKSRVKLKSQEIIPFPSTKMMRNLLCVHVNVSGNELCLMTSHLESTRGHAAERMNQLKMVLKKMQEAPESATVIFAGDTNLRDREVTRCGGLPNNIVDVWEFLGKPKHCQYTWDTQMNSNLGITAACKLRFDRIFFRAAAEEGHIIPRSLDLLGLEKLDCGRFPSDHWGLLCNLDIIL
Sequence of Luciferin 4-monooxygenase (P08659 whole entry): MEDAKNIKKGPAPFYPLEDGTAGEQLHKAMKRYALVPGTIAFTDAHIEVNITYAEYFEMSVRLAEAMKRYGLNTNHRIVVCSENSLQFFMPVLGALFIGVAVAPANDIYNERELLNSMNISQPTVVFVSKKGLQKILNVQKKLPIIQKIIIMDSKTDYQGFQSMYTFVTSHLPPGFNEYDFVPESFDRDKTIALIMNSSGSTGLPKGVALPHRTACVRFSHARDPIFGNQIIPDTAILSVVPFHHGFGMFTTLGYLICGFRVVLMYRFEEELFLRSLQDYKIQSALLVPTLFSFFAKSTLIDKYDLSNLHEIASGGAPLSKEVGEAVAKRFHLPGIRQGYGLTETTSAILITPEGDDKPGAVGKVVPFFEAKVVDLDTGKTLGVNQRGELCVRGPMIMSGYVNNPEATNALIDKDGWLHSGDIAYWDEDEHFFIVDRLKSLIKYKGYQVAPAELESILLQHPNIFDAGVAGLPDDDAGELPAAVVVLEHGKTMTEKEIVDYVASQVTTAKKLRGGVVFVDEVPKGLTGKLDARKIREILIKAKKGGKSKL

Turning to `COc1cc2ccccc2cc1C(=O)OCC(=O)N1CCOCC1`, the EC50 at Kallikrein-7 is > 69.5 µM (inactive).

For `Cc1ccn2c(Nc3ccccc3C)c(-c3ccccn3)nc2c1`, the AC50 in the assay on INS1 is 5.32 µM (active). Besides, the EC50 is 146 µM (active) in “cells [1]”, 6.24 µM (active) with Streptococcus, 2.75 µM (active) in [2] and > 350 µM (not active) in “cells [3]”. For the same molecule, in [4], the IC50 was 67.9 µM (inactive).

With `Cc1cccc(N=C(S)NNC(=O)c2ccc(O)cc2O)c1C`, the IC50 in [4] was > 122 µM (inactive).

With `CN1CC(=O)N2C(c3ccc(Cl)cc3)c3[nH]c4ccccc4c3C[C@H]2C1=O` (stereo partly drawn), the AC50 in [5] is 9.73 µM (active); at Paired box protein Pax-8, 10.3 µM (active); in assay [6], 21.4 µM (active); in assay [7], > 100 µM (inactive); in [8], 10.3 µM (active).

Consider `Cc1cc(=O)oc2c(CN3CCCC3)c(O)c(Cl)cc12`, for which the AC50 in assay [9] is 5.76 µM (active).

With `Nc1c2c(O)nc(O)cc2nn1-c1ccccc1`, in assay [10], the IC50 was 79.9 µM (inactive).

For the molecule `C[C@@H]1CN([C@H](C)CO)C(=O)c2cc(NS(=O)(=O)c3ccc(Cl)cc3)ccc2O[C@@H](C)CCCCO[C@H]1CN(C)Cc1ccc(C(F)(F)F)cc1`, the AC50 at Paired box protein Pax-8 was 6.62 µM (active); in assay [11] it was 21.6 µM (active); in [12] it was 10.6 µM (active); in assay [13], 31.8 µM (active); in assay [14], 21.3 µM (active); in assay [15] it was 3.68 µM (active). Also, the AC50 in [16] is 20.2 µM (active); in assay [17], 10.8 µM (active).

In the case of `CCC(=O)N(C)C[C@H]1Oc2ncc(C#Cc3ccncc3)cc2C(=O)N([C@H](C)CO)C[C@H]1C`, in assay [9], the AC50 was 2.92 µM (active).

Take `COc1cccc(OCc2cc(/C=N/Nc3ccc(C(=O)O)cc3)ccc2OC)c1`: the EC50 is 4.64 µM (active) in assay [18] and 84.7 µM (active) in assay [21]. Moreover, the IC50 was 15.7 µM (active) in assay [19]; 8.85 µM (active) in assay [20]; 22.4 µM (active) at Caspase-3; 25.5 µM (active) in assay [23]; 6.91 µM (active) in assay [24]; 7.37 µM (active) in assay [25]. Also, the AC50 in assay [22] is 7.48 µM (active).
